We go through seven molecules from paper PMC11110727, “Exploiting thiol-functionalized benzosiloxaboroles for achieving diverse substitution patterns – synthesis, characterization and biological evaluation of promising antibacterial agents” (RSC Medicinal Chemistry, 2024).

Values after ≈ are worked out from the molar mass of the structure shown.

Test [1] relates to S. aureus ATCC 6538P. In words: Antibacterial activity: MIC/MBC determination and disc-diffusion. Type of test: cell-based, Staphylococcus aureus. Conditions: S. aureus ATCC 6538P; for diameter of inhibition zone: disc-diffusion, — = zone not observed; for MBC / MIC: Staphylococcus aureus, ATCC6538P; for MBC: read-out: MBC (first MBC where Eagle effect); for MIC: read-out: MIC. In a few lines:
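Disc-diffusion and broth MIC assays followed EUCAST and CLSI recommendations; MBC/MFC were determined per CLSI. Strains were subcultured twice before testing (bacteria on tryptic soy agar, yeasts on Sabouraud dextrose agar, 24–48 h, 30 °C). Compounds were dissolved in DMSO.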

Test [2] concerns E. coli ATCC 25922. In words: Antibacterial activity: MIC/MBC, MIC with PAβN, disc-diffusion. Type of test: cell-based, Escherichia coli. Conditions: E. coli ATCC 25922; for diameter of inhibition zone: (-) = zone not observed, paper discs 9 mm; for MBC / MIC: Escherichia coli, ATCC25922; for MIC: read-out: MIC. In a few lines: (§1)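 Strains were subcultured twice on TSA at 30 °C. They were then tested by disc diffusion (EUCAST/CLSI), by CLSI broth-microdilution MIC in Mueller–Hinton II broth and by CLSI MBC, with compounds in DMSO.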

Test [3] has as its system P. mirabilis ATCC 12453. Described as above. The note with it: P. mirabilis ATCC 12453; for diameter of inhibition zone: (-) = zone not observed, paper discs 9 mm; for -fold reduction of MIC in the presence of PAβN: PAβN 20 μg mL^−1, MHB + 1 mM MgSO4; for MIC: Proteus mirabilis, ATCC12453, read-out: MIC. The format is cell-based, Proteus mirabilis. In a few lines:
as §1

Test [4] concerns A. baumannii ATCC 19606. The test is described as above. The format is cell-based, Acinetobacter baumannii. The note with it: A. baumannii ATCC 19606; for diameter of inhibition zone: (-) = zone not observed, paper discs 9 mm; for MBC / MIC: Acinetobacter baumannii, ATCC19606; for MIC: read-out: MIC. In a few lines: as §1
In test [5] the test system is P. aeruginosa ATCC 27853. The description is as above. The format is cell-based. Conditions: Pseudomonas aeruginosa, ATCC27853, P. aeruginosa ATCC 27853; for MIC: read-out: MIC. In a few lines:
as §1

The test system of test [6] is S. maltophilia ATCC 12714. The test is described as above. The note with it: S. maltophilia ATCC 12714; for diameter of inhibition zone: (-) = zone not observed, paper discs 9 mm; for MIC: read-out: MIC. Type of test: cell-based, Stenotrophomonas maltophilia. In a few lines:
as §1

Test [7] has as its system S. maltophilia ATCC 13637. The description is as above. The format is cell-based, Stenotrophomonas maltophilia. Conditions: S. maltophilia ATCC 13637; for diameter of inhibition zone: (-) = zone not observed, paper discs 9 mm; for MBC / MIC: Stenotrophomonas maltophilia, ATCC13637; for MIC: read-out: MIC. In a few lines: as §1
For test [8], the system named is B. cepacia ATCC 25416. In words: Antibacterial activity: MIC/MBC, disc-diffusion. Conditions: Burkholderia cepacia, ATCC25416; B. cepacia ATCC 25416; read-out: MIC. Type of test: cell-based, Burkholderia cepacia. In a few lines:
as §1

In test [9] the test system is B. bronchiseptica ATCC 4617. In words: Antibacterial activity: MIC/MBC, disc-diffusion. Type of test: cell-based, Bordetella bronchiseptica. Conditions: B. bronchiseptica ATCC 4617; for diameter of inhibition zone: (-) = zone not observed, paper discs 9 mm; for MBC / MIC: Bordetella bronchiseptica, ATCC4617; for MIC: read-out: MIC. In a few lines:
as §1

Test [10] relates to C. tropicalis IBA 171. In words: Antifungal activity: MIC/MFC, disc-diffusion. Conditions: for MIC: Candida tropicalis, IBA171, read-out: MIC; for diameter of inhibition zone: C. tropicalis IBA 171, (-) = zone not observed, paper discs 9 mm. The format is cell-based. In a few lines: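 Strains were subcultured twice for 24–48 h at 30 °C, on TSA for bacteria and Sabouraud dextrose agar for yeasts. Disc-diffusion and MIC followed EUCAST/CLSI recommendations, and MBC/MFC followed CLSI. Compounds were dissolved in DMSO, with fluconazole or linezolid as references.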

The mark [11] stands for this setting: PAβN 20 μg mL^−1, MHB + 1 mM MgSO4.
Where [12] appears, read: Stenotrophomonas maltophilia, ATCC12714.

Consider `C[Si]1(C)OB(O)c2cc(F)c(SC3CC(=O)NC3=O)c(F)c21` (centres unmarked) [Compound 12, 3-((5,7-Difluoro-3-hydroxy-1,1-dimethyl-1,3-dihydrobenzo[c][1,2,5]oxasilaborol-6-yl)thio)pyrrolidine-2,5-dione], for which the “diameter of inhibition zone” value in test [1] turned out to be 20 mm; in test [2] it was 17 mm; in test [3] it was 14 mm; in test [4], 18 mm; in [6], 13 mm; in [7] it was 13 mm. The “diameter of inhibition zone” value in test [9] came to 25 mm. In addition, the MBC is 100 µg/mL (≈ 291 µM) in [1]; 200 µg/mL (≈ 583 µM) in [2]; 200 µg/mL (≈ 583 µM) in test [4]; 100 µg/mL (≈ 291 µM) in test [7]; 50 µg/mL (≈ 146 µM) in test [9]. For the same molecule, the MIC in test [1] is 6.25 µg/mL (≈ 18.2 µM); in [2] it was 50 µg/mL (≈ 146 µM); in test [3], more than 400 µg/mL; in test [4], 100 µg/mL (≈ 291 µM); in [5], more than 400 µg/mL; in test [6] (setting [12]), 200 µg/mL (≈ 583 µM). Besides, the MIC in test [7] is 50 µg/mL (≈ 146 µM); in test [8], more than 400 µg/mL; in test [9] it was 12.5 µg/mL (≈ 36.4 µM); in [10], more than 400 µg/mL. The results for the “-fold reduction of MIC in the presence of PAβN” value (“-fold reduction of MIC” below) in test [3], in [4] (setting [11]) and in test [6] (setting [11]) were 4 -fold, 2 -fold and 2 -fold, respectively.

Turning to `C[Si]1(C)OB(O)c2ccc(SC3CC(=O)NC3=O)c(F)c21` (centres unmarked) [Compound 13, 3-((7-Fluoro-3-hydroxy-1,1-dimethyl-1,3-dihydrobenzo[c][1,2,5]oxasilaborol-6-yl)thio)pyrrolidine-2,5-dione], the “diameter of inhibition zone” value in test [1] is recorded as 20 mm; in [2] it was 19 mm; in test [3] it was 18 mm; in test [4] it was 20 mm; in test [6] it was 17 mm; in test [7] it was 19 mm. Besides, in test [9], the “diameter of inhibition zone” value amounted to 26 mm. Also, the minimal bactericidal concentration (MBC) in test [1] came to 200 µg/mL (≈ 615 µM); in [2], 50 µg/mL (≈ 154 µM); in test [4] it was 100 µg/mL (≈ 308 µM); in test [5] it was 400 µg/mL (≈ 1230 µM); in test [6] (setting [12]) it was 200 µg/mL (≈ 615 µM); in [7] it was 50 µg/mL (≈ 154 µM). In [9], this molecule showed a minimal bactericidal concentration (MBC) of 25 µg/mL (≈ 76.9 µM). Moreover, the MIC worked out at 25 µg/mL (≈ 76.9 µM) in test [1]; 25 µg/mL (≈ 76.9 µM) in [2]; 400 µg/mL (≈ 1230 µM) in test [3]; 50 µg/mL (≈ 154 µM) in test [4]; 200 µg/mL (≈ 615 µM) in [5]; 50 µg/mL (≈ 154 µM) in test [6] (setting [12]). Besides, the MIC in test [7] was 25 µg/mL (≈ 76.9 µM); in test [8] it was more than 400 µg/mL; in [9] it was 12.5 µg/mL (≈ 38.4 µM); in test [10], more than 400 µg/mL. Besides, the “-fold reduction of MIC” value in test [3] was 4 -fold.

For the molecule `C[Si]1(C)OB(O)c2cc(F)c(SC3CC(=O)N(c4ccc(F)cc4)C3=O)c(F)c21` (centres unmarked) [Compound 14, 3-((5,7-Difluoro-3-hydroxy-1,1-dimethyl-1,3-dihydrobenzo[c][1,2,5]oxasilaborol-6-yl)thio)-1-(4-fluorophenyl)pyrrolidine-2,5-dione], the “diameter of inhibition zone” value in test [1] was found to be 22 mm; in [7], 11 mm; in test [9], 11 mm; in test [10], 19 mm. The minimum inhibitory concentration (MIC) in [1] was 50 µg/mL (≈ 114 µM); in test [2], more than 200 µg/mL; in [3] it was more than 200 µg/mL; in test [4], more than 200 µg/mL; in [5] it was more than 200 µg/mL; in test [6] (setting [12]) it was 100 µg/mL (≈ 229 µM). Further, the MIC was 25 µg/mL (≈ 57.2 µM) in test [7], more than 200 µg/mL in test [8], 200 µg/mL (≈ 457 µM) in test [9] and 200 µg/mL (≈ 457 µM) in test [10]. In [2] (setting [11]), the “-fold reduction of MIC” value is reported as 2 -fold. For the same molecule, the MBC in test [7] worked out at 100 µg/mL (≈ 229 µM).

Turning to `C[Si]1(C)OB(O)c2ccc(SC3CC(=O)N(c4ccc(F)cc4)C3=O)c(F)c21` (centres unmarked) [Compound 15, 3-((7-Fluoro-3-hydroxy-1,1-dimethyl-1,3-dihydrobenzo[c][1,2,5]oxasilaborol-6-yl)thio)-1-(4-fluorophenyl)pyrrolidine-2,5-dione], the “diameter of inhibition zone” value in [1] worked out at 23 mm; in test [10] it was 15 mm. Besides, the minimum inhibitory concentration (MIC) in test [1] is 25 µg/mL (≈ 59.6 µM); in test [2] it was more than 200 µg/mL; in [3] it was more than 200 µg/mL; in test [4], more than 200 µg/mL; in [5] it was more than 200 µg/mL; in test [6] (setting [12]) it was more than 200 µg/mL. Besides, the minimal inhibitory concentration (MIC) in [7], in [8], in test [9] and in [10] was more than 200 µg/mL throughout.

For `C[Si]1(C)OB(O)c2cc(F)c(SC3CC(=O)N(c4ccc(Br)c(C(F)(F)F)c4)C3=O)c(F)c21` (centres unmarked) [Compound 16, 1-(4-Bromo-3-(trifluoromethyl)phenyl)-3-((5,7-difluoro-3-hydroxy-1,1-dimethyl-1,3-dihydrobenzo[c][1,2,5]oxasilaborol-6-yl)thio)pyrrolidine-2,5-dione], the “diameter of inhibition zone” value came to 20 mm in test [1] and 19 mm in [10]. Also, the MBC in test [1] amounted to 100 µg/mL (≈ 177 µM). In addition, the MIC in test [1] is 50 µg/mL (≈ 88.3 µM); in test [2], more than 200 µg/mL; in [3] it was more than 200 µg/mL; in test [4] it was more than 200 µg/mL; in [5], more than 200 µg/mL; in test [6] (setting [12]), more than 200 µg/mL. Also, the MIC is more than 200 µg/mL in test [7], more than 200 µg/mL in test [8], 200 µg/mL (≈ 353 µM) in [9] and 50 µg/mL (≈ 88.3 µM) in test [10].

Regarding `C[Si]1(C)OB(O)c2ccc(SC3CC(=O)N(c4ccc(Br)c(C(F)(F)F)c4)C3=O)c(F)c21` (centres unmarked) [Compound 17, 1-(4-Bromo-3-(trifluoromethyl)phenyl)-3-((7-fluoro-3-hydroxy-1,1-dimethyl-1,3-dihydrobenzo[c][1,2,5]oxasilaborol-6-yl)thio)pyrrolidine-2,5-dione], the “diameter of inhibition zone” value in test [1] stood at 19 mm; in test [10] it was 16 mm. For the same molecule, in test [1], the minimal bactericidal concentration (MBC) amounted to 100 µg/mL (≈ 182 µM). The minimal inhibitory concentration (MIC) in test [1] is 25 µg/mL (≈ 45.6 µM); in [2], more than 200 µg/mL; in test [3] it was more than 200 µg/mL; in test [4], more than 200 µg/mL; in [5], more than 200 µg/mL; in [6] (setting [12]), more than 200 µg/mL. In addition, the MIC is more than 200 µg/mL in test [7], more than 200 µg/mL in test [8], 200 µg/mL (≈ 365 µM) in [9] and 200 µg/mL (≈ 365 µM) in [10].

`C[Si]1(C)OB(O)c2cc(F)c(SCCC(=O)OCCCCCC[n+]3ccccc3)c(F)c21` [Compound 18, 1-(6-((3-((5,7-difluoro-3-hydroxy-1,1-dimethyl-1,3-dihydrobenzo[c][1,2,5]oxasilaborol-6-yl)thio)propanoyl)oxy)hexyl)pyridin-1-ium trifluoromethanesulfonate]: in [1], the “diameter of inhibition zone” value came out at 19 mm. The minimal bactericidal concentration (MBC) in test [1] worked out at 100 µg/mL. For the same molecule, the minimal inhibitory concentration (MIC) in test [1] was 25 µg/mL; in test [2] it was more than 400 µg/mL; in [3] it was more than 400 µg/mL; in test [4] it was more than 400 µg/mL; in test [5] it was more than 400 µg/mL; in [6] (setting [12]), more than 400 µg/mL. Further, the MIC in test [7] is more than 400 µg/mL; in [8] it was more than 400 µg/mL; in [9], more than 400 µg/mL; in test [10] it was 400 µg/mL.
